According to patent US8017606B2, “Quinoline derivatives as antibacterial agents” (Janssen Pharmaceutica NV, priority 2005, dated 2011):
Converted amounts (≈) assume the structure as drawn.

Key:
Assay in all cases: Microtitre plate assay, IC90 determination
Format in all cases: cell-based
[1] = tested on: Bacillus subtilis (ATCC43639); settings: 90% inhibitory concentration for bacterial growth, 37° C., resazurin fluorescence, read-out: IC90 (μg/ml) BSU 43639
Experimental: (§1) The bacteria used in this study were grown overnight in flasks containing 100 ml Mueller-Hinton Broth (Becton Dickinson—cat. no. 275730) in sterile de-ionized water, with shaking, at 37° C. Stocks (0.5 ml/tube) were stored at −70° C. until use. Bacteria titrations were performed in microtiter plates and colony forming units (CFUs) were determined. In general, an inoculum level of approximately 100 CFUs was used for susceptibility testing.
(§2) Anti Bacterial Susceptibility Testing: IC90 Determination
(§3) Flat-bottom, sterile 96-well plastic microtiter plates were filled with 180 μl of sterile deionized water, supplemented with 0.25% BSA. Subsequently, stock solutions (7.8×final test concentration) of compounds were added in 45 μl volumes in column 2 Serial five-fold dilutions (45 μl in 180 μl) were made directly in the microtiter plates from column 2 to reach column 11. Untreated control samples with (column 1) and without (column 12) inoculum were included in each microtiter plate. Depending on the bacteria type, approximately 10 to 60 CFU per well of bacteria inoculum (100 TCID50), in a volume of 100 μl in 2.8× Mueller-Hinton broth medium, was added to the rows A to H, except column 12. The same volume of broth medium without inoculum was added to column 12 in row A to H. The cultures were incubated at 37° C. for 24 hours under a normal atmosphere (incubator with open air valve and continuous ventilation). At the end of incubation, one day after inoculation, the bacterial growth was quantitated fluorometrically. Therefore resazurin (0.6 mg/ml) was added in a volume of 20 μl to all wells […], and the plates were re-incubated overnight. A change in colour from blue to pink indicated the growth of bacteria.
(§4) The fluorescence was read in a computer-controlled fluorometer (Cytofluor Biosearch) at an excitation wavelength of 530 nm and an emission wavelength of 590 nm. The % growth inhibition achieved by the compounds was calculated according to standard methods. The IC90 (expressed in μg/ml) was defined as the 90% inhibitory concentration for bacterial growth.

[2] = tested on: Enterococcus faecalis (ATCC14506); settings: 90% inhibitory concentration for bacterial growth, 37° C., resazurin fluorescence, read-out: IC90 (μg/ml) EFA 14506
Experimental: as §1, §2, §3, §4

[3] = tested on: Enterococcus faecalis (ATCC29212); settings: 90% inhibitory concentration for bacterial growth, 37° C., resazurin fluorescence, read-out: IC90 (μg/ml) EFA 29212
Experimental: as §1, §2, §3, §4

[4] = tested on: Listeria monocytogenes (ATCC49594); settings: 90% inhibitory concentration for bacterial growth, 37° C., resazurin fluorescence, read-out: IC90 (μg/ml) LMO 49594
Experimental: as §1, §2, §3, §4

[5] = tested on: Pseudomonas aeruginosa (ATCC27853); settings: 90% inhibitory concentration for bacterial growth, 37° C., resazurin fluorescence, read-out: IC90 (μg/ml) PAE 27853
Experimental: as §1, §2, §3, §4

[6] = tested on: Staphylococcus aureus (ATCC25923); settings: 90% inhibitory concentration for bacterial growth, 37° C., resazurin fluorescence, read-out: IC90 (μg/ml) STA 25923
Experimental: as §1, §2, §3, §4

[7] = tested on: Staphylococcus aureus (ATCC29213); settings: 90% inhibitory concentration for bacterial growth, 37° C., resazurin fluorescence, read-out: IC90 (μg/ml) STA 29213
Experimental: as §1, §2, §3, §4

[8] = tested on: Staphylococcus aureus (ATCC43300); settings: 90% inhibitory concentration for bacterial growth, 37° C., resazurin fluorescence, read-out: IC90 (μg/ml) STA 43300
Experimental: as §1, §2, §3, §4

[9] = tested on: Streptococcus mutans (ATCC33402); settings: 90% inhibitory concentration for bacterial growth, 37° C., resazurin fluorescence, read-out: IC90 (μg/ml) SMU 33402
Experimental: as §1, §2, §3, §4

[10] = tested on: Streptococcus pneumoniae (ATCC6305); settings: 90% inhibitory concentration for bacterial growth, 37° C., resazurin fluorescence, read-out: IC90 (μg/ml) SPN 6305
Experimental: as §1, §2, §3, §4

[11] = tested on: Streptococcus pyogens (ATCC8668); settings: 90% inhibitory concentration for bacterial growth, 37° C., resazurin fluorescence, read-out: IC90 (μg/ml) SPY 8668
Experimental: as §1, §2, §3, §4

[12] = tested on: methicilline resistant Staphylococcus aureus (MRSA) (a clinical isolate from the University of Antwerp); settings: 90% inhibitory concentration for bacterial growth, 37° C., resazurin fluorescence, read-out: IC90 (μg/ml) STA RMETHIC
Experimental: as §1, §2, §3, §4

[13] = tested on: Escherichia coli (ATCC1403); settings: 90% inhibitory concentration for bacterial growth, 37° C., resazurin fluorescence, read-out: IC90 (μg/ml) ECO 1403
Experimental: as §1, §2, §3, §4

[14] = tested on: Escherichia coli (ATCC25922); settings: 90% inhibitory concentration for bacterial growth, 37° C., resazurin fluorescence, read-out: IC90 (μg/ml) ECO 25922
Experimental: as §1, §2, §3, §4

[15] = tested on: Escherichia coli (ATCC35218); settings: 90% inhibitory concentration for bacterial growth, 37° C., resazurin fluorescence, read-out: IC90 (μg/ml) ECO 35218
Experimental: as §1, §2, §3, §4

Row | Structure (SMILES) | IC90 [1] [µg/mL] | IC90 [2] [µg/mL] | IC90 [3] [µg/mL] | IC90 [4] [µg/mL] | IC90 [5] [µg/mL] | IC90 [6] [µg/mL] | IC90 [7] [µg/mL] | IC90 [8] [µg/mL] | IC90 [9] [µg/mL] | IC90 [10] [µg/mL] | IC90 [11] [µg/mL] | IC90 [12] [µg/mL] | IC90 [13] [µg/mL] | IC90 [14] [µg/mL] | IC90 [15] [µg/mL]
1 | COc1nc2cccc(C(O)(CCN(C)C)c3cccc4ccccc34)c2cc1-c1ccccc1 (stereo not drawn) [Compound 2] | 9.2 (≈ 19.9 µM) | 8.2 (≈ 17.7 µM) | 11.6 (≈ 25.1 µM) | 11.6 (≈ 25.1 µM) | 9.2 (≈ 19.9 µM) | 11.6 (≈ 25.1 µM) | 9.2 (≈ 19.9 µM) | 9.2 (≈ 19.9 µM) | 9.2 (≈ 19.9 µM) | 11.6 (≈ 25.1 µM) | 9.2 (≈ 19.9 µM) | 11.6 (≈ 25.1 µM) | – | – | –
2 | COc1nc2cccc(C(O)(CCN(C)C)c3ccc4ccccc4c3)c2cc1-c1ccccc1 (stereo not drawn) [Compound 3] | 11.6 (≈ 25.1 µM) | – | 11.6 (≈ 25.1 µM) | 11.6 (≈ 25.1 µM) | 9.2 (≈ 19.9 µM) | 11.6 (≈ 25.1 µM) | 11.6 (≈ 25.1 µM) | 9.2 (≈ 19.9 µM) | 9.2 (≈ 19.9 µM) | 5.2 (≈ 11.2 µM) | 9.2 (≈ 19.9 µM) | 11.6 (≈ 25.1 µM) | – | – | –
3 | COc1nc2cccc(C(O)(CCN(C)C)c3cc4ccccc4o3)c2cc1-c1ccccc1 (stereo not drawn) [Compound 6] | 11.4 (≈ 25.2 µM) | – | 11.4 (≈ 25.2 µM) | 11.4 (≈ 25.2 µM) | 9 (≈ 19.9 µM) | 11.4 (≈ 25.2 µM) | 9 (≈ 19.9 µM) | 9 (≈ 19.9 µM) | 9 (≈ 19.9 µM) | 11.4 (≈ 25.2 µM) | 9 (≈ 19.9 µM) | 10.1 (≈ 22.3 µM) | – | – | –
4 | COc1nc2c(C(O)(CCN(C)C)c3cc(F)cc(F)c3)cc(Br)cc2cc1-c1ccccc1 (stereo not drawn) [Compound 9] | – | 11.8 (≈ 22.4 µM) | 10.5 (≈ 19.9 µM) | 10.5 (≈ 19.9 µM) | 10.5 (≈ 19.9 µM) | 11.8 (≈ 22.4 µM) | 10.5 (≈ 19.9 µM) | 13.3 (≈ 25.2 µM) | 10.5 (≈ 19.9 µM) | 13.3 (≈ 25.2 µM) | 10.5 (≈ 19.9 µM) | 11.8 (≈ 22.4 µM) | – | – | –
5 | COc1nc2c(C(O)(CCN(C)C)c3cc(F)cc(F)c3)cc(Br)cc2cc1Cc1ccccc1 (stereo not drawn) [Compound 12] | 13.6 (≈ 25.1 µM) | 10.8 (≈ 19.9 µM) | 13.6 (≈ 25.1 µM) | 13.6 (≈ 25.1 µM) | 10.8 (≈ 19.9 µM) | 12.1 (≈ 22.3 µM) | 10.8 (≈ 19.9 µM) | 10.8 (≈ 19.9 µM) | 10.8 (≈ 19.9 µM) | 12.1 (≈ 22.3 µM) | 10.8 (≈ 19.9 µM) | 12.1 (≈ 22.3 µM) | – | – | –
6 | CN(C)CCC(O)(c1cc(F)cc(F)c1)c1cc(Br)cc2cc(Cc3ccccc3)c(-n3ccnc3)nc12 (stereo not drawn) [Compound 19] | 14.5 (≈ 25.1 µM) | – | 14.5 (≈ 25.1 µM) | 14.5 (≈ 25.1 µM) | 14.5 (≈ 25.1 µM) | 12.9 (≈ 22.3 µM) | 14.5 (≈ 25.1 µM) | 11.5 (≈ 19.9 µM) | 11.5 (≈ 19.9 µM) | 14.5 (≈ 25.1 µM) | 11.5 (≈ 19.9 µM) | 14.5 (≈ 25.1 µM) | – | – | –
7 | CN(C)CCC(O)(c1cccs1)c1cc(Br)cc2cc(Cc3ccccc3)c(N3CCN(C)CC3)nc12 (stereo not drawn) [Compound 20] | 14.6 (≈ 25.2 µM) | – | 14.6 (≈ 25.2 µM) | 14.6 (≈ 25.2 µM) | 14.6 (≈ 25.2 µM) | 13 (≈ 22.4 µM) | 11.6 (≈ 20 µM) | – | 14.6 (≈ 25.2 µM) | 14.6 (≈ 25.2 µM) | 11.6 (≈ 20 µM) | 46 (≈ 79.4 µM) | 13 (≈ 22.4 µM) | 14.6 (≈ 25.2 µM) | 11.6 (≈ 20 µM)
8 | CN(C)CCC(O)(c1cccs1)c1cc(Br)cc2cc(Cc3ccccc3)c(N(C)C)nc12 (stereo not drawn) [Compound 46] | 10.5 (≈ 20 µM) | 10.5 (≈ 20 µM) | 10.5 (≈ 20 µM) | 10.5 (≈ 20 µM) | 10.5 (≈ 20 µM) | 11.7 (≈ 22.3 µM) | 10.5 (≈ 20 µM) | 10.5 (≈ 20 µM) | 10.5 (≈ 20 µM) | 10.5 (≈ 20 µM) | 10.5 (≈ 20 µM) | 9.3 (≈ 17.7 µM) | – | – | –
9 | CN(C)CCOc1nc2c(C(O)(CCN(C)C)c3ccccc3)cc(Br)cc2cc1Cc1ccccc1 (stereo not drawn) [Compound 49] | 56.3 (≈ 100 µM) | – | 56.3 (≈ 100 µM) | 56.3 (≈ 100 µM) | 56.3 (≈ 100 µM) | 56.3 (≈ 100 µM) | 44.7 (≈ 79.5 µM) | – | 44.7 (≈ 79.5 µM) | 56.3 (≈ 100 µM) | 22.4 (≈ 39.8 µM) | 56.3 (≈ 100 µM) | – | 56.3 (≈ 100 µM) | –
10 | CN(C)CCC(O)(c1ccccc1)c1cc(Br)cc2cc(Cc3ccccc3)c(NCCC(c3ccccc3)c3ccccc3)nc12 (stereo not drawn) [Compound 59] | 10.9 (≈ 15.9 µM) | 54.4 (≈ 79.4 µM) | 17.2 (≈ 25.1 µM) | 10.9 (≈ 15.9 µM) | 17.2 (≈ 25.1 µM) | 54.4 (≈ 79.4 µM) | 15.3 (≈ 22.3 µM) | 17.2 (≈ 25.1 µM) | 15.3 (≈ 22.3 µM) | 17.2 (≈ 25.1 µM) | 15.3 (≈ 22.3 µM) | 54.4 (≈ 79.4 µM) | – | – | 15.3 (≈ 22.3 µM)
